Experimental data from the supplement of paper PMC13380429.

Assays:
Settings in all cases: 72 h
U2OS [1] = experiment: relative viability EC50 (midpoint between 100% and the lowest measured viability); higher = less toxic
HepG2 [2] = experiment: as above
Calu-3 [3] = experiment: as above
Vero E6 [4] = experiment: as above
U2OS [5] = experiment: drug sensitivity score (DSS) for viability; higher = more toxic; extreme values may be limits of the assay
HepG2 [6] = experiment: as above
Calu-3 [7] = experiment: as above
Vero E6 [8] = experiment: as above
Caco-2 [9] = experiment: as above
U2OS [10] = experiment: cell viability relative to DMSO; higher = less toxic
HepG2 [11] = experiment: as above
Calu-3 [12] = experiment: as above
Vero E6 [13] = experiment: as above
Caco-2 [14] = experiment: as above

| SMILES | relative viability EC50 (U2OS [1]) | relative viability EC50 (HepG2 [2]) | relative viability EC50 (Calu-3 [3]) | relative viability EC50 (Vero E6 [4]) | drug sensitivity score (U2OS [5]) | drug sensitivity score (HepG2 [6]) | drug sensitivity score (Calu-3 [7]) | drug sensitivity score (Vero E6 [8]) | drug sensitivity score (Caco-2 [9]) | cell viability (U2OS [10]; 1 nM) | cell viability (U2OS [10]; 10 nM) | cell viability (U2OS [10]; 100 nM) | cell viability (U2OS [10]; 1000 nM) | cell viability (U2OS [10]; 10000 nM) | cell viability (HepG2 [11]; 1 nM) | cell viability (HepG2 [11]; 10 nM) | cell viability (HepG2 [11]; 100 nM) | cell viability (HepG2 [11]; 1000 nM) | cell viability (HepG2 [11]; 10000 nM) | cell viability (Calu-3 [12]; 1 nM) | cell viability (Calu-3 [12]; 10 nM) | cell viability (Calu-3 [12]; 100 nM) | cell viability (Calu-3 [12]; 1000 nM) | cell viability (Calu-3 [12]; 10000 nM) | cell viability (Vero E6 [13]; 1 nM) | cell viability (Vero E6 [13]; 10 nM) | cell viability (Vero E6 [13]; 100 nM) | cell viability (Vero E6 [13]; 1000 nM) | cell viability (Vero E6 [13]; 10000 nM) | cell viability (Caco-2 [14]; 1 nM) | cell viability (Caco-2 [14]; 10 nM) | cell viability (Caco-2 [14]; 100 nM) | cell viability (Caco-2 [14]; 1000 nM) | cell viability (Caco-2 [14]; 10000 nM) |
| --- | --- | --- | --- | --- | --- | --- | --- | --- | --- | --- | --- | --- | --- | --- | --- | --- | --- | --- | --- | --- | --- | --- | --- | --- | --- | --- | --- | --- | --- | --- | --- | --- | --- | --- |
| Cc1cc(Nc2nc(N[C@@H](C)c3ccc(F)cc3)c(C#N)cc2F)n[nH]1 [AZ960] | 1330 nM | 422 nM | 1.51 µM | 883 nM | 7.4 | 10.9 | 5.8 | 7.4 | 5.4 | 104% | 101% | 104% | 76.3% | 27.8% | 111% | 105% | 96.7% | 43.2% | 33.6% | 118% | 103% | 96.1% | 83.9% | 38.9% | 99.3% | 99.6% | 100% | 65.9% | 40.9% | 112% | 109% | 118% | 77.8% | 51.8% |
| COc1cccc(Nc2c(C(N)=O)cnc3c(C)cc(S(=O)(=O)c4cccc(C(=O)N(C)C)c4)cc23)c1 |  |  |  |  | 0 | 0 |  | 0 |  |  |  |  |  |  |  |  |  |  |  |  |  |  |  |  |  |  |  |  |  |  |  |  |  |  |
| CC(C)=CCC/C(C)=C/CNCCNC1C2CC3CC(C2)CC1C3 (stereo not drawn) [SQ-109] | > 10000 nM | > 10000 nM | > 10 µM | > 10000 nM | 0 | 0.1 | 0 | 0 | 2.4 | 102% | 104% | 99.5% | 103% | 93.6% | 94.3% | 103% | 110% | 103% | 86.3% | 94.2% | 111% | 106% | 106% | 94% | 103% | 95.8% | 105% | 102% | 88.8% | 92.5% | 107% | 81.7% | 90.6% | 74.2% |
| CC(C)(C)Nc1nc(Nc2ccc(C(N)=O)cc2)cc(N)c1C#N [TC-Mps1-12] |  | 555 nM | > 10 µM |  | 2.6 | 8 | 0 | 2.1 | 1.8 | 93.6% | 96.6% | 94.8% | 95% | 62.9% | 91.7% | 89.8% | 88.4% | 66.2% | 39.5% | 97.5% | 103% | 104% | 109% | 100% | 104% | 102% | 101% | 98.2% | 61.7% | 94.9% | 101% | 102% | 95.9% | 72.1% |
